Consider twelve molecules from article PMC5650337, “A peptidomimetic with a chiral switch is an inhibitor of epidermal growth factor receptor heterodimerization” (Oncotarget, 2017).

The target in assay [1] is T1, HER2 ECD (domains I to IV) (Homo sapiens, UniProt P04626).
T1 construct: Extracellular domains of proteins HER2, EGFR, HER3, and HER4 purchased from Leinco Technologies; purchased Leinco Technologies (St. Louis, MO)
In words: Surface plasmon resonance analysis. The format is binding. As to conditions: protein immobilized on CM5 chip, substance as analyte. As to the method:
Surface plasmon resonance analysis was performed using GE X100. Extracellular domains of proteins HER2, EGFR, HER3, and HER4 purchased from Leinco Technologies (St. Louis, MO). […] Compound 18 and controls were used as analytes. Compound 18 at different concentrations (0 to 200 µM) was passed through an SPR chip, and binding kinetics were analyzed for each of the EGFR bindings. A blank subtracted sensorgram for compound 18 was represented.
On the technique in general: SPR reads the build-up and loss of mass on a sensor chip optically.

For assay [2], the system named is SKBR-3 cells.
Protocol: (§1) Cellular assays were performed using BT-474, SKBR-3, Calu-3, MCF-7, and MCF-10A cells (ATCC). Antiproliferative activity was measured by CellTiter-Glo®, [49] a luminescence-based cell viability assay. In a 96-well plate, 1 × 10^4 cells/well were seeded and incubated overnight at 37°C and 5% CO2. Stock solutions of peptidomimetics were prepared by dissolving 1.5 mg/mL of compounds in DMSO. Stock solution of the compounds were diluted using the serum-free medium to prepare solutions of different concentrations of compounds. Compounds in the medium were added to the wells in triplicate and incubated for 72 h. As controls, cells treated with 1% sodium dodecyl sulfate and 1% dimethyl sulfoxide were used. At the end of the experiment, CellTiter-Glo® reagent was added, and luminescence was measured by a plate reader. A dose response curve was generated using luminescence vs concentration of compounds and IC50 values were obtained using Prism® (GraphPad Software, La Jolla, CA). Experiments were repeated at least three times to obtain standard deviation values.
The test system of assay [3] is BT-474 cells. As to conditions: read-out: IC50 BT-474 (+); HER2-overexpressing breast cancer cells, 72 h.
Protocol: as §1
Assay [4] relates to Calu-3 cells. As to conditions: read-out: IC50 Calu-3 (+); HER2-overexpressing lung cancer cells, 72 h.
Protocol: as §1
The subject of assay [5] is MCF-7 cells. In words: Antiproliferative activity (CellTiter-Glo). The format is cell-based. As to conditions: breast cancer cells that do not overexpress HER2, 72 h. An excerpt: Erlotinib was from Sigma (Sigma-Aldrich Chemie GmbH).
The target in assay [6] is T2, HER2:HER3 dimerization in transfected U2OS cells (Homo sapiens, UniProt P04626).
T2 construct: host or cells: U2OS
In words: Enzyme fragment complementation (PathHunter) assay. The format is cell-based. As to conditions: for Inhibition of HER2:HER3 dimerization (PathHunter): in the presence of 0.3 µM NRG1. As to the method: A Pathhunter assay kit was obtained from DiscoverX, and enzyme fragment complementation assay was carried out. U2OS cells transfected with HER3:HER2 were used for the assay. After cells were attached to the wells, they were incubated with compound 18 and controls at different concentration in the presence of neuregulin-1 (NRG-1) at 0.3 µM concentration. After 24 h of incubation, reagents were added, and luminescence was measured and compared with a control without any compound. A plot of luminescence versus concentration was obtained to measure the dimerization of HER3:HER2 and its inhibition by compound 18.

The test system of assay [7] is SKOV-3 cells. As to conditions: read-out: IC50 SKOV-3(+); HER2-overexpressing ovarian cancer cells, 72 h.
Protocol: as §1
Assay [8] relates to BT-474 breast tumors. In words: Xenograft model of breast cancer. The format is in vivo, athymic nude mice. As to conditions: BT-474 xenograft. As for the experimental part: All animals were handled according to the approved protocol from IACUC at the University of Louisiana at Monroe. Athymic nude mice (Foxn1nu/Foxn1+, female, 4–5 weeks) were purchased from Harlan Laboratories (Indianapolis, IN) and maintained in the ULM School of Pharmacy vivarium. After acclimatization of animals to the local environment, estrogen (17β-estradiol) pellets (0.72 mg, 90-day release) were implanted subcutaneously in the mice, under anesthesia. Tumors were induced in mice as described previously. Orthotopic injection of about three-million BT-474 cells suspended in the serum-free RPMI-1640 medium was done at the second left mammary fat pad. Mice were observed every day for tumor formation, and the tumor diameter was measured with calipers, and the tumor volume was calculated. When a tumor diameter of 3 mm was achieved, mice were randomly assigned to four groups of six. These groups contain negative control (vehicle control), positive control (lapatinib), and two treatment groups (compound 9 and 18). The mice were treated for 19 days. Compound 18 was administered near the base of the tumor at a dose of 4 mg/kg twice a week. Control groups received intratumor saline injections twice a week, and lapatinib was administered at 10 mg/kg once a week by intraperitoneal injection. The marker to end the experiments was based on tumor doubling time rather than tumor volume. Since tumor doubling time was 4 times in 19 days, experiments were stopped on the 19th day. Tumor-bearing mice were sacrificed, and three tumors per group were harvested and maintained at –80°C and the remaining three tumors were fixed in paraffin blocks. Microsections (5 µm) of paraffin fixed tumors were stained with hemotoxylin and eosin (H&E) and observed for necrosis by a pathologist. All data are presented as the mean ± SE. Statistical differences were evaluated by Mann-Whitney U test as well as one-way ANOVA analysis of data from different groups, and the criterion for statistical significance was p < 0.05.

Assay [9] has as its system SKBR-3 cells. Also noted: method as in PMID 21887403, PMID 20919746, PMID 25346057, PMID 24222531, PMID 19703026. As to conditions: Table 2, compounds marked * reported earlier; read-out: Antiproliferative activity (IC50 µM) SKBR-3 cells; cited from earlier work.
The target of assay [10] is T3, HER2:HER3 heterodimerization in tumor sections (Homo sapiens, UniProt P04626).
T3 construct: from tissue; host or cells: BT-474 xenograft tumours grown in athymic nude mice
In words: PLA on xenograft tumor sections. Type of assay: in vivo, athymic nude mice. As to the method: Western blot and PLA assay were carried out on tumor sections as described before. Immunoblot analysis was performed to evaluate the levels of total HER2 and phosphorylated HER2. Tumor sections were deparaffinized using xylene and rehydrated with decreasing concentrations of ethanol. Antigen retrieval on the microsections of the breast tumors was done in a steaming sodium citrate buffer (10 mM, 0.05% Tween-20, pH 6.0) for 5 min. The tumor sections were then used to analyze inhibition of HER2:HER3 dimerization using PLA.

Assay [11] relates to SKBR-3 cells. In words: cells. As to conditions: Homo sapiens, SK-BR-3, 72 h, read-out: IC50 SKBR-3(+).
Protocol: as §1
[12] abbreviates: read-out: Antiproliferative activity (IC50 µM) SKBR-3 cells, Table 2, compound 18 and diastereoisomers.

Where two headings read alike, the source gives them in different places. Where a SMILES comes first, the peptide text is derived from it. Where only a bound is given, the exact number is not on record here.

A word on the IC50: it is the point on the concentration scale where inhibition reaches its midpoint. For “H2N-K(3-amino-biphenyl propionic acid)F-OH [CP, reference compound]”, in assay [1], the “SPR binding to HER2 ECD” value was “no SPR response was observed”. In addition, the IC50 in assay [2] (read-out: IC50 SKBR-3(+), HER2-overexpressing breast cancer cells, 72 h) was > 100 µM; in [3] it was > 100 µM; in assay [4] it was > 100 µM; in assay [5], > 100 µM; in [7] it was > 100 µM. In addition, in assay [6], the “Inhibition of HER2:HER3 dimerization (PathHunter)” value is reported as “did not inhibit HER2:HER3 dimerization”.

In the case of NH2-Arg-Anapa-Phe-Asp-OH [compound 9], the “Difference in delay of tumor growth between compound 18 and compound 9” value in [8] (4 mg/kg twice a week) is recorded as “not statistically significant”. Also, the IC50 in assay [9] was 0.445 ± 0.032 µM.

NH2-Arg-Anapa-Phe-OH [compound 5]: the IC50 in assay [9] is 0.396 ± 0.022 µM.

On to `N=C(N)NCCC[C@@H]1NC(=O)[C@@H]2CCCN2C(=O)[C@H]2CCCN2C(=O)[C@H](CCCNC(=N)N)NC(=O)C[C@H](c2cccc3ccccc23)NC(=O)[C@H](Cc2ccccc2)NC(=O)[C@H](CC(=O)O)NC(=O)[C@H](CC(=O)O)NC(=O)[C@H](Cc2ccccc2)NC(=O)C[C@H](c2cccc3ccccc23)NC1=O` [compound 18-5, Cyclo(1,10)p^1P^2R^3(R-Anapa)^4F^5D^6D^7F^8(R-Anapa)^9R^10] (HELM PEPTIDE1{[dP].P.R.[O=C(C[C@@H](N[*:1])c1cccc2ccccc12)[*:2]].F.D.D.F.[O=C(C[C@@H](N[*:1])c1cccc2ccccc12)[*:2]].R}$PEPTIDE1,PEPTIDE1,1:R1-10:R2$$$V2.0), for which the IC50 in [2] (setting [12]) is 12.8 ± 1.9 µM.

With neuregulin-1 [reference compound], in assay [6] (agonist dose-response), the “Induction of HER2:HER3 dimerization (PathHunter)” value is reported as “concentration dependence of induction of dimerization”.

In the case of `CS(=O)(=O)CCNCc1ccc(-c2ccc3ncnc(Nc4ccc(OCc5cccc(F)c5)c(Cl)c4)c3c2)o1` [Lapatinib, reference compound], in [8] (19 days, 18 and 9 4 mg/kg twice a week intratumor, lapatinib 10 mg/kg once a week i.p.), the “Tumor growth versus vehicle” value was “significant delay in tumor growth”. In addition, the “HER2:HER3 heterodimerization in tumor sections (PLA)” value in assay [10] is given as “red fluorescence due to dimerization of HER2:HER3”. In assay [11], the IC50 came out at 0.013 ± 0.003 µM.

Turning to `N=C(N)NCCC[C@@H]1NC(=O)[C@@H]2CCCN2C(=O)[C@H]2CCCN2C(=O)[C@H](CCCNC(=N)N)NC(=O)C[C@@H](c2cccc3ccccc23)NC(=O)[C@H](Cc2ccccc2)NC(=O)[C@H](CC(=O)O)NC(=O)[C@H](CC(=O)O)NC(=O)[C@H](Cc2ccccc2)NC(=O)C[C@@H](c2cccc3ccccc23)NC1=O` [compound 18-4, Cyclo(1,10)p^1P^2R^3(S-Anapa)^4F^5D^6D^7F^8(S-Anapa)^9R^10] (HELM PEPTIDE1{[dP].P.R.[O=C(C[C@H](N[*:1])c1cccc2ccccc12)[*:2]].F.D.D.F.[O=C(C[C@H](N[*:1])c1cccc2ccccc12)[*:2]].R}$PEPTIDE1,PEPTIDE1,1:R1-10:R2$$$V2.0), the IC50 in assay [2] (setting [12]) worked out at 0.456 ± 0.13 µM.

Take `N=C(N)NCCC[C@@H]1NC(=O)[C@H]2CCCN2C(=O)[C@@H]2CCCN2C(=O)[C@H](CCCNC(=N)N)NC(=O)C[C@@H](c2cccc3ccccc23)NC(=O)[C@H](Cc2ccccc2)NC(=O)[C@H](CC(=O)O)NC(=O)[C@H](CC(=O)O)NC(=O)[C@H](Cc2ccccc2)NC(=O)C[C@@H](c2cccc3ccccc23)NC1=O` [compound 18-3, Cyclo(1,10)P^1p^2R^3(S-Anapa)^4F^5D^6D^7F^8(S-Anapa)^9R^10] (HELM PEPTIDE1{P.[dP].R.[O=C(C[C@H](N[*:1])c1cccc2ccccc12)[*:2]].F.D.D.F.[O=C(C[C@H](N[*:1])c1cccc2ccccc12)[*:2]].R}$PEPTIDE1,PEPTIDE1,1:R1-10:R2$$$V2.0): the IC50 in assay [2] (setting [12]) amounted to 41.1 ± 3.2 µM.

Regarding “Cyclo(1,10)GPR- (Anapa)FDEFWR [compound 20]”, the IC50 in assay [9] was > 100 µM.

As to `N=C(N)NCCC[C@@H]1NC(=O)[C@H]2CCCN2C(=O)[C@@H]2CCCN2C(=O)[C@H](CCCNC(=N)N)NC(=O)C[C@H](c2cccc3ccccc23)NC(=O)[C@H](Cc2ccccc2)NC(=O)[C@H](CC(=O)O)NC(=O)[C@H](CC(=O)O)NC(=O)[C@H](Cc2ccccc2)NC(=O)C[C@@H](c2cccc3ccccc23)NC1=O` [compound 18-1, Cyclo(1,10)P^1p^2R^3(S-Anapa)^4F^5D^6D^7F^8(R-Anapa)^9R^10] (HELM PEPTIDE1{P.[dP].R.[O=C(C[C@H](N[*:1])c1cccc2ccccc12)[*:2]].F.D.D.F.[O=C(C[C@@H](N[*:1])c1cccc2ccccc12)[*:2]].R}$PEPTIDE1,PEPTIDE1,1:R1-10:R2$$$V2.0), the IC50 in assay [2] (setting [12]) was > 50 µM.

On to `N=C(N)NCCC[C@@H]1NC(=O)[C@H]2CCCN2C(=O)[C@@H]2CCCN2C(=O)[C@H](CCCNC(=N)N)NC(=O)C[C@@H](c2cccc3ccccc23)NC(=O)[C@H](Cc2ccccc2)NC(=O)[C@H](CC(=O)O)NC(=O)[C@H](CC(=O)O)NC(=O)[C@H](Cc2ccccc2)NC(=O)C[C@H](c2cccc3ccccc23)NC1=O` [compound 18-2, Cyclo(1,10)P^1p^2R^3(R-Anapa)^4F^5D^6D^7F^8(S-Anapa)^9R^10] (HELM PEPTIDE1{P.[dP].R.[O=C(C[C@@H](N[*:1])c1cccc2ccccc12)[*:2]].F.D.D.F.[O=C(C[C@H](N[*:1])c1cccc2ccccc12)[*:2]].R}$PEPTIDE1,PEPTIDE1,1:R1-10:R2$$$V2.0), for which the IC50 in [2] (setting [12]) is 0.743 ± 0.35 µM.

Turning to Ac-f(Anapa)r-NH2 [compound 21], the IC50 in assay [9] is 0.373 ± 0.15 µM. For the same molecule, in assay [6], the “Inhibition of HER2:HER3 dimerization (PathHunter)” value is “shown to inhibit HER2:HER3 dimerization”.
